Patent publication US8597904B2, “Pharmaceutical compositions for the treatment of conditions responsive to proteasome inhibition” (priority 2007, dated 2013)
Residues, ends and D or L forms follow the SMILES beside them. *: point of attachment. Cbz = O=C(OCc1ccccc1)*

Assays:
[1] = target: T1, human erythrocyte 20S proteasomes, chymotrypsin-like activity (Homo sapiens, UniProt P28074); type: biochemical
T1 construct: which contains human erythrocyte 20S proteasomes; purchased BIOMOL International AK-740; host or cells: human erythrocytes
Protocol: A 100 μl reaction volume contained 2 μg/ml 20S proteasome, 100 μM substrate, and the desired concentrations of syringolin A in dilution buffer (50 mM Tris-HCl, pH 7.5, 25 mM KCl, 10 mM NaCl, 1 mM MgCl2). Epoximicin and MG132 (BIOMOL® International) were used as test inhibitors. The release of free AMC (7-amino-4-methylcoumarin) at 37° C. was monitored with an MWGt Sirius HT fluorescence microplate reader (BIO-TEK® Instruments) equipped with a 360 nm excitation and a 460 nm emission filter. Proteolytic activities were measured as the increase in relative fluorescence units (RFU) over time (FIG. 7A-C). […] The initial velocities (vi) were determined from the time derivative of these curves and plotted versus the corresponding inhibitor concentration ([I]). […] Using SigmaPlot, the data were fitted to the hyperbolic equation vi=c+[v0/(Ki′+[I])], where v0 is the velocity of the control. […] The rate of covalent inhibition (kassociation), which equals kobs/[I] was calculated over the range of inhibitor concentrations given in parentheses in FIG. 7D. Values in FIG. 7D represent means±standard deviation.
The fluorogenic substrates Suc-LLVY-AMC, Boc-LRR-AMC, and Z-LLE-AMC (BIOMOL® International) were used to monitor chymotrypsin-like, trypsin-like, and caspase-like activities, respectively. […] The release of free AMC (7-amino-4-methylcoumarin) at 37° C. was monitored with an MWGt Sirius HT fluorescence microplate reader (BIO-TEK® Instruments) equipped with a 360 nm excitation and a 460 nm emission filter.

Papaya latex papain = target: T2, Papaya latex papain (Carica papaya, UniProt P00784); experiment: SensoLyte Green Protease Fluorometric Assay, papain inhibition; type: biochemical; settings: syringolin A up to 500 μM
T2 construct: Papaya latex papain (Sigma-Aldrich); purchased Sigma-Aldrich; host or cells: papaya latex
Protocol: (§1) To test the specificity of syringolin A inhibition of proteasome activities, bovine pancreas trypsin (Pierce) and Papaya latex papain (Sigma-Aldrich) inhibition assays with syringolin A were performed with the SensoLyte™ Green Protease Fluorometric Assay Kit (AnaSpec., San Jose, Calif., USA) according to the instructions of the manufacturer. Reaction volumes of 100 μl contained an enzyme concentration of 200 ng/ml and various amounts of test inhibitors. Protease activity was monitored at 33° C. in a FluoroCount Microplate Fluorometer (FluoroCount, Packard, Canberra, Australia) using 485 nm excitation and a 550 nm emission filters.

bovine pancreas trypsin = target: T3, bovine pancreas trypsin (Bos taurus, UniProt P00760); experiment: SensoLyte Green Protease Fluorometric Assay, trypsin inhibition; type: biochemical; settings: syringolin A up to 500 μM
T3 construct: bovine pancreas trypsin (Pierce); purchased Pierce; host or cells: bovine pancreas
Protocol: as §1

SK-N-SH cells = experiment: Cytox-Glo cytotoxicity assay; type: cell-based, human; settings: light microscope, 48 hours
Protocol: Determination of potential cytotoxic effects by GlbA and/or […] was carried out by using the Cytox-Glo cytotoxicity assay, which measures “dead cell proteases” from cells that have lost membrane integrity. Briefly, cells were treated with a single concentration of compound for 48 hours in a final volume of 100 μl, after which 50 μl of AAF-Glo luminogenic peptide substrate (alanyl-alanyl-phenylalanyl-aminoluciferin) was added to each well and incubated for 15 min at room temperature. The luminescence was measured by a Dynex MLX luminometer to give a reading of cells with damaged membranes. Next, 50 μl of digitonin was added to each well and the samples incubated for 15 minutes at room temperature. Luminescence was measured a second time to determine total cell number. Controls included cells with vehicle only, media, and media with compound.
SK-N-SH cells were treated with 0.25 μM GlbA or 25 μM SylA and SKOV3 cells were treated with 1.0 μM GlbA or 25 μM SylA. As illustrated in FIGS. 16A and 16B, control cells (treated with DMSO and H2O representing GlbA and SylA controls, respectively) were viable and no cytotoxicity was detected.
To determine if autophagy plays a role in GlbA/SylA-induced cell death, levels of cytotoxicity in cells pre-treated with 3-methyladenine (3-MA), an established autophagy inhibitor, were measured using the assay described in Example 12.

[2] = tested on: poly (ADP-ribose) polymerase (PARP); experiment: Western blot of PARP cleavage in SK-N-SH cells; type: cell-based, human; settings: Example 15, single agent
Protocol: The induction of an apoptotic response in cancer cells by the addition of syringolin A was verified by monitoring the cleavage of poly (ADP-ribose) polymerase (PARP), a common response during apoptosis. SK-N-SH cells were cultured in the presence or absence of 20 μM syringolin A for 0, 24 and 48 hours, and cell lysates were then generated as described in Example 4 and probed for the presence of PARP by Western blotting using rabbit polyclonal anti-PARP (#9542) (diluted 1:1000) and the HRP-linked anti-rabbit secondary antibody described in Example 4. The results were representative of four independent experiments. […] The treatment of cells for 48 hours further increased the levels of cleaved PARP, whereas noncleaved PARP disappeared. In a similar manner, syringolin A induced PARP cleavage in SKOV3 cells, but noncleaved PARP was still detected 48 hours after treatment (FIG. 5B).
The role of glidobactin A (GlbA) in apoptosis and its correlation with autophagy has not previously been examined. Therefore, in a series of experiments, cell lysates of SK-N-SH cells were treated with GlbA in the presence and absence of the autophagy inhibitor 3-methyladenine (3-MA) and probed for poly ADP-ribose polymerase (PARP). The cleavage of PARP produces a smaller 89 kDa fragment which is indicative of late apoptosis.

[3] = tested on: microtubule-associated protein 1 light chain 3 (LC3); experiment: immunoblot of LC3 conversion (autophagy) in SK-N-SH cells; type: cell-based, human; settings: compared to untreated control cells
Protocol: To verify whether autophagy is induced in GlbA-treated cells, levels of microtubule-associated protein 1 light chain 3 (LC3), a reliable marker of autophagosomes, were measured. […] Therefore, this characteristic conversion of LC3 can be used to monitor autophagic activity. SK-N-SH cells were treated with GlbA in the presence or absence of 3-MA, and cell lysates were probed with LC3.

[4] = target: T4, proteasome activity in SK-N-SH neuroblastoma cells (Homo sapiens, UniProt P28074); experiment: Proteasome-Glo cell-based luminescent assay; settings: 2 hours incubation
T4 construct: endogenous in cells; host or cells: SK-N-SH
T4 sequence (P28074 60-263): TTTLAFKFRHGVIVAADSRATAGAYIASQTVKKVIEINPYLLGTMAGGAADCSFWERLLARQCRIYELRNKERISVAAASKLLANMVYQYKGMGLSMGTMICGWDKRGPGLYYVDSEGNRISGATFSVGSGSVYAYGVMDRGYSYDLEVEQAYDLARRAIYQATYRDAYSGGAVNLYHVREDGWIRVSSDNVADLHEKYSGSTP
Protocol: Syringolin A was tested as a proteasome inhibitor in vivo in cultured mammalian cancer cells. Inhibition of proteasome activity in human SK-N-SH neuroblastoma cells was measured using the Proteasome-Glo™ cell-based luminescent assay (Promega) in solid white 96-well microtiter cell culture plates. Ten μl of syringolin A (at various concentrations) was added to each well containing SK-N-SH cells (plated at a concentration of 1.0×10^5 cells/ml in 90 μl well volumes 24 hours prior) and a negative control and media only control were included. Cells were incubated with 1-100 μM syringolin A for 2 hours or 24 hours, and then equilibrated to room temperature for 15 minutes before 100 μl of Proteasome-Glo reagent (containing bioluminescent substrate Suc-LLVY-aminoluciferin) was added to the cells. Luminescence (indicated as relative luminescence units [RLU]) was read after 15-30 minutes on a Dynex MLX Luminometer.
To trace the kinetics of proteasome inhibition in the presence of syringolin, the same experiment was performed, but in this case, 100 μl of Proteasome-Glo reagent was added to cells first, followed by the addition of syringolin A at various concentrations, and the proteasome activity was measured over time.
The cell culture-based proteasome inhibition assay was performed as previously described (Groll et al. 2008. Nature 452:755-758, which is incorporated herein by reference in its entirety). Briefly, wells of white-walled 96-well microtiter cell culture plates were seeded at a density of 1×10^4 cells/well (SK-N-SH) or 5×10^3 cells/well (SKOV3) in 90 μl. After 24 hours, 10 μl GlbA or SylA were added at increasing concentrations (0-100 μM) and incubated for 2 hours. […] Cell Death Differ 9:1017-1025; Meng, et al. 1999. PNAS 96:10403-10408, each of which is incorporated herein by reference in its entirety) were used as positive and negative controls, respectively. Microtiter plates were then equilibrated to room temperature for 15 min before adding 100 μl of proteasome Glo™ reagent (containing bioluminescent substrate Suc-LLVY-aminoluciferin) per well. Luminescence was measured on a Dynex MLX luminometer, according to the manufacturer's instructions (Promega).

T2 sequence (P00784 134-345): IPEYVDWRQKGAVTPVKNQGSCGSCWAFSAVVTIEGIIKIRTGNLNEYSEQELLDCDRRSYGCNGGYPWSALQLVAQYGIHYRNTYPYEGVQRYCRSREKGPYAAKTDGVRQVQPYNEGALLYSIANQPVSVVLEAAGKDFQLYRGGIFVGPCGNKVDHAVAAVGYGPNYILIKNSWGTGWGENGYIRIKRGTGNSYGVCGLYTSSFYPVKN
T3 sequence (P00760 24-246): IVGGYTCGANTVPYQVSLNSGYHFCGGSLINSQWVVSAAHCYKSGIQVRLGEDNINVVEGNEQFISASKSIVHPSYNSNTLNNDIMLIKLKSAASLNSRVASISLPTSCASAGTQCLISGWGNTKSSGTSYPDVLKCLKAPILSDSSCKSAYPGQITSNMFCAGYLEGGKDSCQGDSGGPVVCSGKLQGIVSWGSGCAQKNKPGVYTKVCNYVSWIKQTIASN

Q: For `CC(C)C[C@@H](C=O)NC(=O)[C@H](CC(C)C)NC(=O)[C@H](CC(C)C)NC(=O)OCc1ccccc1` [MG-132, reference compound] (Cbz-Leu-Leu-Leu-aldehyde), which “mode of proteasome inhibition (reaction velocity over time)” value [1] is on record?
A: reversible

Q: And the papain activity (Papaya latex papain)?
A: also inhibits cysteine proteases

Q: What about the trypsin activity (bovine pancreas trypsin) of the same compound?
A: trypsin inhibitor

Q: Which results are given for `Cn1cnc(N)c2ncnc1-2` [3-MA, 3-methyladenine, reference compound]?
A: cell proliferation and killing, 3-MA control cells (SK-N-SH cells): suppresses SK-N-SH cell proliferation without killing cells; PARP cleavage [2]: had no effect on PARP cleavage; LC3-II amount / conversion of LC3 [3]: did not alter the conversion of LC3

Q: `C/C=C/C/C=C/CCC(=O)[C@H]1O[C@H]1C(N)=O` [cerulenin, reference compound] was tested. Which “proteasome activity in cells” value [4] did it give?
A: does not significantly inhibit proteasome activity

Q: With glidobactin A as the compound, how does the proteasome chymotrypsin-like activity ([1]; 500-fold dilution of 10× concentrated HPLC peak) read?
A: reduced proteasome activity to background levels
